{"source": "paper doi:10.1101/2020.06.18.159418v1", "about": "(biorxiv, 2020)", "assay_type_in_all_cases": "binding", "key": {"[1]": {"target": "T1, HuPrP90-231 (Homo sapiens, UniProt P04156)", "T1 construct": "gene PRNP"}, "[2]": {"target": "T1, HuPrP90-231", "assay": "biochemical"}, "[3]": {"target": "T2, HuPrP23-231 (Homo sapiens, UniProt P04156)", "T2 construct": "gene PRNP", "details": "0.3-1 mM compound, 20 mM HEPES pH 7.4, 150 mM NaCl, 3% DMSO, 298 K"}}}
{"smiles": "Cc1nc2cc(Cl)c(Cl)cc2[nH]1", "note": "[compound 1, 5,6-dichloro-2-methyl-1H-benzimidazole]", "values": [{"measurement": "decrease in melting temperature", "setting": "[1]", "value": "~ 0.2 °C"}, {"measurement": "Kd", "setting": "[2]", "value": "> 1", "unit": "mM"}, {"measurement": "1H-15N TROSY NMR chemical shift perturbation", "setting": "[3]", "value": "we observed similar resonance shifts in the full-length protein HuPrP23-231"}]}
